Where two headings read alike, the source gives them in different places. Values belong to the compound of their own block, whether it stands above or below them.
Legend:
A375 cells (parental) [1] = test: Dose-response curves and IC50, PrestoBlue cell viability, 72 h; assay type: cell-based, human; conditions: for IC50: read-out: Half-maximal inhibitory concentration value (IC50), Mean
[2] = system: A375-XP cells (Vemurafenib-resistant); test: as above; assay type: cell-based, human; conditions: n.e. = did not suppress growth below 50% in the tested concentration range; for IC50: read-out: Half-maximal inhibitory concentration value (IC50), Mean
[3] = system: A375-GP cells (Dabrafenib-resistant); test: as above; assay type: cell-based, human; conditions: n.e. = did not suppress growth below 50% in the tested concentration range; for IC50: read-out: Half-maximal inhibitory concentration value (IC50), Mean
[4] = system: 501Mel-GP cells (Dabrafenib-resistant); test: Kinase inhibitor library screening, PrestoBlue cell viability, 1 or 10 μM, 72 h; conditions: 501Mel GP, 72 h
501Mel cells (parental) = test: as above; conditions: 501Mel Parental, 72 h
In short: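 Values are % viability versus untreated wells, measured by PrestoBlue after a 72 h drug exposure. Screens covered the parental line plus sublines rendered resistant to Vemurafenib or Dabrafenib, each analysed in at least duplicate.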

A375 cells (parental) [5] = test: as above; conditions: A375 Parental, 72 h
[6] = system: IGR37-XP cells (Vemurafenib-resistant); test: as above; conditions: IGR37 XP, 72 h
[7] = system: 501Mel-XP cells (Vemurafenib-resistant); test: as above; conditions: 501Mel XP, 72 h
IGR37 cells (parental) = test: as above; conditions: IGR37 Parental, 72 h
[8] = system: A375-GP cells (Dabrafenib-resistant); test: as above; conditions: A375 GP, 72 h
[9] = system: IGR37-GP cells (Dabrafenib-resistant); test: as above; conditions: IGR37 GP, 72 h
[10] = system: A375-XP cells (Vemurafenib-resistant); test: as above; conditions: A375 XP, 72 h
[11] = n.e. = did not suppress growth below 50% in the tested concentration range
[12] = Homo sapiens, A-375, n.e. = did not suppress growth below 50% in the tested concentration range

Half-maximal inhibitory concentration value (IC50), Mean [2]: n.e.
Half-maximal inhibitory concentration value (IC50), Mean [3]: n.e.
Compound: Cn1cnc2c(F)c(Nc3ccc(Br)cc3Cl)c(C(=O)NOCCO)cc21 [AZD6244]
Half-maximal inhibitory concentration value (IC50), Mean (A375 cells (parental) [1]; [11]): n.e.

IC50 [2]: 769 nM
IC50 [3]: 969 nM
Compound: CNC(=O)c1c(F)cccc1Nc1nc(Nc2cc3c(cc2OC)CCN3C(=O)CN(C)C)nc2[nH]ccc12 [GSK1838705A, reference compound]
IC50 (A375 cells (parental) [1]; [11]): 1200 nM
cell viability, 501Mel GP, 1μΜ ([4]; 1μΜ, in %): 75.8
cell viability, 501Mel GP, 10μΜ ([4]; 10μΜ, in %): -0.19
cell viability, 501Mel Parental, 1μΜ (501Mel cells (parental); 1μΜ, in %): 73.7
cell viability, 501Mel Parental, 10μΜ (501Mel cells (parental); 10μΜ, in %): 0.4
cell viability, A375 Parental, 1μΜ (A375 cells (parental) [5]; 1μΜ, in %): 68.1
cell viability, A375 Parental, 10μΜ (A375 cells (parental) [5]; 10μΜ, in %): 12.8
cell viability, IGR37 XP, 10μΜ ([6]; 10μΜ): 1%
cell viability, IGR37 XP, 1μΜ ([6]; 1μΜ, in %): 42.8
cell viability, 501Mel XP, 1μΜ ([7]; 1μΜ, in %): 70.4
cell viability, 501Mel XP, 10μΜ ([7]; 10μΜ, in %): -0.3
cell viability, IGR37 Parental, 1μΜ (IGR37 cells (parental); 1μΜ, in %): 92.2
cell viability, IGR37 Parental, 10μΜ (IGR37 cells (parental); 10μΜ, in %): 1.2
cell viability, A375 GP, 1μΜ ([8]; 1μΜ, in %): 67.8
cell viability, A375 GP, 10μΜ ([8]; 10μΜ, in %): 10.4
cell viability, IGR37 GP, 10μΜ ([9]; 10μΜ): 2%
cell viability, IGR37 GP, 1μΜ ([9]; 1μΜ, in %): 73.7
cell viability, A375 XP, 1μΜ ([10]; 1μΜ, in %): 70.8
cell viability, A375 XP, 10μΜ ([10]; 10μΜ, in %): 11.1

IC50 ([2]; Homo sapiens): 2940 nM
IC50 ([3]; Homo sapiens): 2080 nM
Compound: C[C@]1(O)C[C@@H](c2nc(-c3ccc4ccc(-c5ccccc5)nc4c3)c3c(N)nccn32)C1 [Linsitinib]
IC50 (A375 cells (parental) [1]; [12]): 4170 nM

IC50 [2]: 191 nM
IC50 [3]: 254 nM
Compound: COc1ccc(-c2cc3c(C)nc(N)nc3n([C@H]3CC[C@H](OCCO)CC3)c2=O)cn1 [PF-04691502, reference compound]
IC50 (A375 cells (parental) [1]; [11]): 298 nM
Cell viability in kinase inhibitor library screening, 501Mel GP, 1μΜ ([4]; 1μΜ, in %): 14.9
Cell viability in kinase inhibitor library screening, 501Mel GP, 10μΜ ([4]; 10μΜ, in %): 0.379
Cell viability in kinase inhibitor library screening, 501Mel Parental, 1μΜ (501Mel cells (parental); 1μΜ, in %): 21.9
Cell viability in kinase inhibitor library screening, 501Mel Parental, 10μΜ (501Mel cells (parental); 10μΜ, in %): 0.8
Cell viability in kinase inhibitor library screening, A375 Parental, 10μΜ (A375 cells (parental) [5]; 10μΜ): 2.9
Cell viability in kinase inhibitor library screening, A375 Parental, 1μΜ (A375 cells (parental) [5]; 1μΜ): 25.2
Cell viability in kinase inhibitor library screening, IGR37 XP, 10μΜ ([6]; 10μΜ): 3.2%
Cell viability in kinase inhibitor library screening, IGR37 XP, 1μΜ ([6]; 1μΜ, in %): 22.1
Cell viability in kinase inhibitor library screening, 501Mel XP, 1μΜ ([7]; 1μΜ, in %): 10.0
Cell viability in kinase inhibitor library screening, 501Mel XP, 10μΜ ([7]; 10μΜ, in %): -0.224
Cell viability in kinase inhibitor library screening, IGR37 Parental, 1μΜ (IGR37 cells (parental); 1μΜ, in %): 38.6
Cell viability in kinase inhibitor library screening, IGR37 Parental, 10μΜ (IGR37 cells (parental); 10μΜ, in %): 5.0
Cell viability in kinase inhibitor library screening, A375 GP, 1μΜ ([8]; 1μΜ): 22.6
Cell viability in kinase inhibitor library screening, A375 GP, 10μΜ ([8]; 10μΜ): 3.9
Cell viability in kinase inhibitor library screening, IGR37 GP, 10μΜ ([9]; 10μΜ): 7.5%
Cell viability in kinase inhibitor library screening, IGR37 GP, 1μΜ ([9]; 1μΜ, in %): 50.6
Cell viability in kinase inhibitor library screening, A375 XP, 1μΜ ([10]; 1μΜ): 18.5
Cell viability in kinase inhibitor library screening, A375 XP, 10μΜ ([10]; 10μΜ): 3.3

IC50 ([2]; Homo sapiens): 4990 nM
IC50 ([3]; Homo sapiens): 2210 nM
Compound: CC(=O)c1c(C)c2cnc(Nc3ccc(N4CCNCC4)cn3)nc2n(C2CCCC2)c1=O [Palbociclib]
IC50 (A375 cells (parental) [1]; [12]): 5320 nM

The next lines start with the compound.

Compound: CCN(CCCOc1ccc2c(Nc3cc(CC(=O)Nc4cccc(F)c4)n[nH]3)ncnc2c1)CCOP(=O)(O)O [Barasertib]
Half-maximal inhibitory concentration value (IC50), Mean (A375 cells (parental) [1]; [11]): n.e.
Half-maximal inhibitory concentration value (IC50), Mean [2]: n.e.
Half-maximal inhibitory concentration value (IC50), Mean [3]: n.e.

Compound: CC(C)CC(=O)Nc1[nH]nc2c1CN(C(=O)C1CCN(C)CC1)C2(C)C [PHA-793887, reference compound]
IC50 (A375 cells (parental) [1]; [12]): 578 nM
IC50 ([2]; Homo sapiens): 1050 nM
cell viability (kinase inhibitor library screening) ([4]; 10μΜ): 25.0%
cell viability (kinase inhibitor library screening) (501Mel cells (parental); 1μΜ): 90.8%
cell viability (kinase inhibitor library screening) (501Mel cells (parental); 10μΜ): 20.0%
cell viability (kinase inhibitor library screening) (A375 cells (parental) [5]; 10μΜ): 8.5%
cell viability (kinase inhibitor library screening) (A375 cells (parental) [5]; 1μΜ): 47.0%
cell viability (kinase inhibitor library screening) ([6]; 1μΜ): 87.3%
cell viability (kinase inhibitor library screening) ([6]; 10μΜ): 5.3%
cell viability (kinase inhibitor library screening) ([7]; 1μΜ): 88.3%
cell viability (kinase inhibitor library screening) ([7]; 10μΜ): 13.3%
cell viability (kinase inhibitor library screening) (IGR37 cells (parental); 1μΜ): 100.2%
cell viability (kinase inhibitor library screening) (IGR37 cells (parental); 10μΜ): 41.8%
cell viability (kinase inhibitor library screening) ([8]; 1μΜ): 52.2%
cell viability (kinase inhibitor library screening) ([8]; 10μΜ): 4.2%
cell viability (kinase inhibitor library screening) ([9]; 1μΜ): 96.5%
cell viability (kinase inhibitor library screening) ([9]; 10μΜ): 23.5%
cell viability (kinase inhibitor library screening) ([10]; 1μΜ): 60.1%
cell viability (kinase inhibitor library screening) ([10]; 10μΜ): 10.2%
IC50 ([3]; Homo sapiens): 720 nM

Compound: CNC(=O)c1cc(Oc2ccc(NC(=O)Nc3ccc(Cl)c(C(F)(F)F)c3)c(F)c2)ccn1 [Regorafenib]
IC50 (A375 cells (parental) [1]; [12]): 2730 nM
IC50 ([2]; Homo sapiens): 1710 nM
IC50 ([3]; Homo sapiens): 701 nM

Compound: COc1cc2c(Nc3ccc(NC(=O)c4ccccc4)cc3)ncnc2cc1OCCCN1CCOCC1 [ZM-447439]
cell viability (kinase inhibitor library screening) ([4]; 1μΜ): 104.5%
cell viability (kinase inhibitor library screening) ([4]; 10μΜ): 2.3%
cell viability (kinase inhibitor library screening) (501Mel cells (parental); 1μΜ): 90.8%
cell viability (kinase inhibitor library screening) (501Mel cells (parental); 10μΜ): 7.6%
cell viability (kinase inhibitor library screening) (A375 cells (parental) [5]; 10μΜ): 56.3%
cell viability (kinase inhibitor library screening) (A375 cells (parental) [5]; 1μΜ): 76.7%
cell viability (kinase inhibitor library screening) ([6]; 1μΜ): 95.9%
cell viability (kinase inhibitor library screening) ([6]; 10μΜ): 24.7%
cell viability (kinase inhibitor library screening) ([7]; 1μΜ): 90.5%
cell viability (kinase inhibitor library screening) ([7]; 10μΜ): -0.26%
cell viability (kinase inhibitor library screening) (IGR37 cells (parental); 1μΜ): 103.7%
cell viability (kinase inhibitor library screening) (IGR37 cells (parental); 10μΜ): 54.6%
cell viability (kinase inhibitor library screening) ([8]; 1μΜ): 79.5%
cell viability (kinase inhibitor library screening) ([8]; 10μΜ): 52.0%
cell viability (kinase inhibitor library screening) ([9]; 1μΜ): 96.5%
cell viability (kinase inhibitor library screening) ([9]; 10μΜ): 69.7%
cell viability (kinase inhibitor library screening) ([10]; 1μΜ): 88.7%
cell viability (kinase inhibitor library screening) ([10]; 10μΜ): 65.2%

Compound: FC(F)c1nc2ccccc2n1-c1nc(N2CCOCC2)nc(N2CCOCC2)n1 [ZSTK474]
Cell viability in kinase inhibitor library screening, 501Mel GP, 1μΜ ([4]; 1μΜ, in %): 45.9
Cell viability in kinase inhibitor library screening, 501Mel GP, 10μΜ ([4]; 10μΜ, in %): 9.4
Cell viability in kinase inhibitor library screening, 501Mel Parental, 1μΜ (501Mel cells (parental); 1μΜ, in %): 66.9
Cell viability in kinase inhibitor library screening, 501Mel Parental, 10μΜ (501Mel cells (parental); 10μΜ, in %): 8.9
Cell viability in kinase inhibitor library screening, A375 Parental, 10μΜ (A375 cells (parental) [5]; 10μΜ): 16.3
Cell viability in kinase inhibitor library screening, A375 Parental, 1μΜ (A375 cells (parental) [5]; 1μΜ): 76.3
Cell viability in kinase inhibitor library screening, IGR37 XP, 10μΜ ([6]; 10μΜ): 4.7%
Cell viability in kinase inhibitor library screening, IGR37 XP, 1μΜ ([6]; 1μΜ, in %): 71.7
Cell viability in kinase inhibitor library screening, 501Mel XP, 10μΜ ([7]; 10μΜ, in %): 2.5
Cell viability in kinase inhibitor library screening, IGR37 Parental, 1μΜ (IGR37 cells (parental); 1μΜ, in %): 77.8
Cell viability in kinase inhibitor library screening, IGR37 Parental, 10μΜ (IGR37 cells (parental); 10μΜ, in %): 23.8
Cell viability in kinase inhibitor library screening, A375 GP, 1μΜ ([8]; 1μΜ): 69.9
Cell viability in kinase inhibitor library screening, A375 GP, 10μΜ ([8]; 10μΜ): 13.0
Cell viability in kinase inhibitor library screening, IGR37 GP, 10μΜ ([9]; 10μΜ): 8.8%
Cell viability in kinase inhibitor library screening, IGR37 GP, 1μΜ ([9]; 1μΜ, in %): 80.3
Cell viability in kinase inhibitor library screening, A375 XP, 1μΜ ([10]; 1μΜ): 67.6
Cell viability in kinase inhibitor library screening, A375 XP, 10μΜ ([10]; 10μΜ): 15.9

Compound: MK-2206 dihydrochloride
cell viability (kinase inhibitor library screening) ([4]; 1μΜ): 90.7%
cell viability (kinase inhibitor library screening) ([4]; 10μΜ): 28.3%
cell viability (kinase inhibitor library screening) (501Mel cells (parental); 1μΜ): 98.7%
cell viability (kinase inhibitor library screening) (501Mel cells (parental); 10μΜ): 7.6%
cell viability (kinase inhibitor library screening) (A375 cells (parental) [5]; 10μΜ): 74.4%
cell viability (kinase inhibitor library screening) ([6]; 1μΜ): 94.6%
cell viability (kinase inhibitor library screening) ([6]; 10μΜ): 4.2%
cell viability (kinase inhibitor library screening) ([7]; 1μΜ): 69.2%
cell viability (kinase inhibitor library screening) ([7]; 10μΜ): 1.7%
cell viability (kinase inhibitor library screening) (IGR37 cells (parental); 10μΜ): 25.6%
cell viability (kinase inhibitor library screening) ([8]; 1μΜ): 96.2%
cell viability (kinase inhibitor library screening) ([8]; 10μΜ): 66.2%
cell viability (kinase inhibitor library screening) ([9]; 1μΜ): 100.0%
cell viability (kinase inhibitor library screening) ([9]; 10μΜ): 15.9%
cell viability (kinase inhibitor library screening) ([10]; 1μΜ): 93.8%
cell viability (kinase inhibitor library screening) ([10]; 10μΜ): 54.1%

— PMC6364417, “Kinase inhibitor library screening identifies synergistic drug combinations effective in sensitive and resistant melanoma cells” (Journal of Experimental & Clinical Cancer Research : CR, 2019)
